Several values for one entry are separate records, joined by “and”; a condition that tells them apart may be missing. Identical values can stand only once. Counter-ions that a name gives are not always drawn. Like-named read-outs stand apart in the source and are kept apart here.
How the values were obtained:
[1] = Membrane dialysis SN38 release kinetics; format: physicochemical; details: in 7 h; 0.1 M NaHCO3 buffer, pH 8.6
[2] = Water solubility and solution stability; format: physicochemical
Excerpt: Following the formation of SPESN38 complexes, the solution was lyophilized to yield yellowish powder.

SK-LMS-1 = SK-LMS-1 cell line; cited from earlier work
[3] = tested on: SK-LMS-1 xenograft tumors; format: in vivo, SCID mice; design: Estimate of tumor volume difference vs SPESN38-8 / Estimate of tumor volume difference vs Vehicle: unit not given here; details: for Tumor volume, Mean / Tumor volume, Median: in mm³ (unit assumed); for Tumor volume change from Day 0, Mean / Tumor volume change from Day 0, Median: volume minus day 0 volume
Excerpt: SK-LMS-1 cell line (HTB-88) was purchased from ATCC. […] Equal number (12) of female and male mice were used in this experiment. […] The intended schedule for drug or vehicle treatment was weekly for 3 doses.
A mixed linear regression model was made with tumor volume as the outcome on day 2, 6, and 9. The model tested for group differences adjusted for time, day 0 volume, and sex. There was a within animal correlation modeled using a random intercept. […] The black color columns are within group at between days, the red columns are between group at each day.

[4] = design: method as in PMID 8289200; details: in the presence of HSA; cited from earlier work
HSA = details: cited from earlier work
cancer cells = tested on: cancer cells; design: method as in PMID 11489791, PMID 1651156; details: cited from earlier work
[5] = design: method as in earlier work; details: irinotecan at 200 mg/kg, mice, cited from earlier work
[6] = Irinotecan IV dose tolerability; format: in vivo, mouse; details: female, mouse, in vivo; SCID mice, via IV
Procedure: (§1) After growing in Eagle's Minimum Essential, HCT-116 cells were harvested by trypsinization and washed twice with PBS. HCT-116 cells (2 × 10^6 per injection) were suspended in 200 µL of a 1:1 solution of ice-cold PBS and Matrigel (Corning Incorporated, Corning, NY) solution. […] After the tumors grew to 800–1200 mm^3, they were isolated, and approximately 50 mg of non-necrotic tumor masses were subcutaneously implanted into the flank area of individual female SCID mice. […] Other doses at 75 and 50 mg/kg were tried on healthy CD-1 mice. […] Tumor volume (TV) and BW were measured three times per week or daily depending on the condition of the mouse. TV was calculated using the formula: v = 0.5 (L x W^2). Progression at the endpoint was a tumor size with diameter ≥ 20 mm or a moribund condition.

SCID mice and CD-1 mice = assay: Irinotecan IV dose tolerability; format: in vivo, mouse
Procedure: as §1

[7] = tested on: HCT-116 CRC xenograft tumors; assay: HCT-116 model efficacy study; details: for tumor growth inhibition (TGI) on Day 10: IV (irinotecan 50 mg/kg, SPESN38-5 55 mg/kg), vs control group, female SCID mice
Procedure: as §1

[8] = cited from earlier work
[9] = DOX 5 mg/kg qwk x 2, SPESN38-8 IV 33 mg/kg qwk x 3
[10] = Day 2, mixed linear regression model, Tukey-Kramer pairwise test
[11] = Day 6, mixed linear regression model, Tukey-Kramer pairwise test
[12] = IV, DOX 5 mg/kg, SPESN38-8 33 mg/kg, relative to control group
[13] = mixed linear regression model, Tukey-Kramer pairwise test

CCc1c2c(nc3ccc(O)cc13)-c1cc3c(c(=O)n1C2)COC(=O)[C@]3(O)CC [SN38 salt]
SN38 out of the membrane tubing [1]: > 90% | solution stability ([2]; under the same conditions as SPESN38 complexes): neither SN38 salt nor SN38 salt-HSA mixture is stable

COc1cccc2c1C(=O)c1c(O)c3c(c(O)c1C2=O)C[C@@](O)(C(=O)CO)C[C@@H]3O[C@H]1C[C@H](N)[C@H](O)[C@H](C)O1 [DOX, doxorubicin]
IC50 (SK-LMS-1): 490 nM | % Tumor volume change at Day 9 [3, 9]: 142% and 142.4% | Mean Tumor volume at Day 9 [3, 9]: 843.5 mm^3 | Tumor weight on ending day, Mean ([3]; DOX Day 9, SPESN38-8 Day 21): 0.73 g | Tumor weight on ending day, Median ([3]; DOX Day 9, SPESN38-8 Day 21): 0.71 g | Initial mean Tumor volume ([3]; Day 0, DOX 5 mg/kg qwk x 2, SPESN38-8 IV 33 mg/kg qwk x 3): 334.2 mm^3 | Tumor volume, Mean ([3]; Day 0): 334.20 | Tumor volume, Median ([3]; Day 0): 343.40 | Tumor volume, Mean ([3]; Day 2): 347.68 | Tumor volume, Median ([3]; Day 2): 355.78 | Estimate of tumor volume difference vs SPESN38-8 [3, 10]: 42.5383 | Estimate of tumor volume difference vs Vehicle [3, 10]: -178.73 | Tumor volume change from Day 0, Mean ([3]; Day 2): 13.48 | Tumor volume change from Day 0, Median ([3]; Day 2): 14.71 | Tumor volume, Mean ([3]; Day 6): 495.42 | Tumor volume, Median ([3]; Day 6): 464.84 | Estimate of tumor volume difference vs SPESN38-8 [3, 11]: 132.53 | Estimate of tumor volume difference vs Vehicle [3, 11]: -258.70 | Tumor volume change from Day 0, Mean ([3]; Day 6): 161.22 | Tumor volume change from Day 0, Median ([3]; Day 6): 138.34 | Tumor volume, Mean ([3]; Day 9): 843.52 | Tumor volume, Median ([3]; Day 9): 810.34 | Estimate of tumor volume difference vs SPESN38-8 ([3]; Day 9, mixed linear regression model, Tukey-Kramer pairwise test): 538.49 | Tumor volume change from Day 0, Mean ([3]; Day 9): 509.32 | Tumor volume change from Day 0, Median ([3]; Day 9): 472.65 | TGI on Day 6 [3, 12]: 27% and 26.9% | TGI on Day 9 [3, 12]: 25% and 25.3% | Estimate of tumor volume difference within group, Day 2 vs Day 6 [3, 13]: -147.74 | Estimate of tumor volume difference within group, Day 2 vs Day 9 [3, 13]: -495.84 | Estimate of tumor volume difference within group, Day 6 vs Day 9 [3, 13]: -348.11 | BW loss after 2 doses ([3]; mouse, in vivo): > 20%

CC[C@@]1(O)C(=O)OCc2c1cc1n(c2=O)Cc2cc3ccccc3nc2-1 [CPT, Camptothecin]
L form at the equilibrium [4]: < 0.5% | fold higher HSA affinity for the C form over the L form (HSA): 157 fold

CCc1c2c(nc3ccc(O)cc13)-c1cc3c(c(=O)n1C2)COC(=O)[C@]3(O)CC [SN38, 7-ethyl-10-hydroxy camptothecin]
times more cytotoxic than irinotecan (cancer cells): 100–1000 times | water solubility [2]: very low solubility in water

CCc1c2c(nc3ccc(OC(=O)N4CCC(N5CCCCC5)CC4)cc13)-c1cc3c(c(=O)n1C2)COC(=O)[C@]3(O)CC [irinotecan]
AUC0-∞ ([5]; moiety Free SN38): 9,940 ng x h/mL | Cmax ([5]; moiety Free SN38): 1,125 ng/mL | Tmax ([5]; moiety Free SN38): 31.8 min | AUC0-∞ ([5]; moiety Irinotecan): 16,348 ng x h/mL | Cmax ([5]; moiety Irinotecan): 6,571 ng/mL | Tmax ([5]; moiety Irinotecan): 17.4 min | AUC0-∞ ([5]; moiety SN38-G): 15,493 ng x h/mL | Cmax ([5]; moiety SN38-G): 2,620 ng/mL | Tmax ([5]; moiety SN38-G): 36 min | MTD [6]: 50 mg/kg | Tolerability (SCID mice and CD-1 mice; 50 mg/kg IV, 2 healthy CD-1 mice): safe | Mortality (SCID mice and CD-1 mice; 75 mg/kg IV, healthy CD-1 mice): died instantly | Mortality (SCID mice and CD-1 mice; 100 mg/kg IV, 2 SCID mice bearing HCT-116): both died immediately | tumor growth inhibition (TGI) on Day 10 [7]: 82% | tumor growth inhibition (TGI) on Day 10 ([7]; listed as Irinotecan): 82.3% | Tumor weight Difference vs SPESN38-5 PO on Day 10 ([7]; IV groups on Day 21): -0.6587 | Tumor weight Difference vs Vehicle on Day 10 ([7]; IV groups on Day 21): -0.9605 | Mean % BW change at ending day ([7]; normalized BW, ending Day 21, IV qwk x 3 (irinotecan 50 mg/kg, SPESN38-5 55 mg/kg)): 90.5% | fraction of irinotecan transformed in vivo into SN38 ([8]; human setting): 2–8% | drug excreted as intact irinotecan ([8]; in humans): 55%
